Experiment: Absorption of M4N in beagle dogs upon oral administration of solid formulations in capsules, serum LC/MS/MS
Assay type: in vivo
Conditions: oral single 100 mg/kg
Experimental: Five groups of dogs (n=2 per group, one male and one female) (age=approximately 6-9 months old) were exposed to a single 100 mg/kg dose of M4N in excipient to determine the optimal oral solid excipient. The composition of M4N in excipient was encapsulated in size 12 hard gelatin capsules prior to oral administration. The animals were fasted overnight prior to dosing. The excipients/formulations tested are set forth in Table 19 and were: (a) no excipient, where M4N was encapsulated; (b) HP-β-CD; (c) TPGS; (d) soybean oil+beeswax; and (e) olive oil+beeswax. Blood was collected from each animal via the jugular vein at the following time points: predose, 0.5 hr, 1 hr, 1.5 hr, 2 hr, 4 hr, 6 hr and 8 hr post dosing. Concentrations of M4N in serum were determined by Liquid Chromatography combined with tandem Mass Spectroscopy (LC/MS/MS).

COc1ccc(C[C@@H](C)[C@@H](C)Cc2ccc(OC)c(OC)c2)cc1OC [Formulation M4N, meso-1,4-bis(3,4-dimethoxyphenyl)-2,3-dimethylbutane]
Absorption, ranking between formulations (Lyophilized HP-β-CD (81%)+M4N (185 mg/g)): higher than that containing TPGS | Absorption, ranking between formulations (TPGS (20%)+M4N (133 mg/g)): higher than that containing soybean oil+beeswax | Absorption, ranking between formulations (olive oil (95%)+beeswax (5%)+M4N (200 mg/g)): highest | Absorption, ranking between formulations (soybean oil (95%)+beeswax (5%)+M4N (200 mg/g)): higher than M4N without an excipient

Source: patent publication US20090022803A1, “Oral Formulations For Delivery of Catecholic Butanes Including Ndga Compounds” (priority 2005, published 2009)
